According to patent US9546201B2, “MUC-1 cytoplasmic domain peptides as inhibitors of cancer” (DANA-FARBER CANCER INSTITUTE, INC., priority 2008, dated 2017):
Where two headings read alike, the source gives them in different places. Where a SMILES comes first, the peptide text is derived from it. Where no end group is shown, it is not given here. [ ]: non-standard residue; d: D form.

Legend:
ZR-75-1 cells = assay: Cell cycle distribution, apoptosis and necrosis by flow cytometry, ZR-75-1; type: cell-based, human; settings: 5 μM; for induction of necrosis: detectable at 72 h, more prominent at 96 h
Procedure: FIGS. 3A-D. MUC1/CQC peptide induces S phase arrest and necrosis. ZR-75-1 (FIGS. 3A-B) and MCF-7 (FIGS. 3C-D) cells were treated with 5 μM MUC1/CQC or MUC1/AQA for 3 and 4 d. Cells were fixed and analyzed for cell cycle distribution by flow cytometry (FIGS. 3A and 3C). The percentage of cells in G1, S and G2/M phases is included in the panels. Cells were also stained with propidium iodide and analyzed by flow cytometry for necrosis (FIGS. 3B and 3D). The percentage of necrotic cells is included in the panels.
Cells were harvested, washed with PBS, fixed with 80% ethanol, and incubated in PBS containing 40 μg/ml RNAse and 40 μg/ml propidium iodide for 30 min at 37° C. Cell cycle distribution was determined by flow cytometry. Sub-G1 DNA content was assessed by staining ethanol-fixed and citrate buffer-permeabilized cells with propidium iodide and monitoring by flow cytometry as described (Yin et al., 2007). For assessment of necrosis, cells were incubated with 1 μg/ml propidium iodide/PBS for 5 min at room temperature and then monitored by flow cytometry as described (Yin et al., 2007).
To determine whether the MUC1/CQC peptide affects growth, ZR-75-1 cells were treated with 5 μM MUC1/CQC for 72 h and monitored for cell cycle distribution. […] These findings indicate that the MUC1/CQC peptide inhibits growth and induces necrosis of human breast cancer cells.

[1] = test system: ZR-75-1 breast tumor xenografts
Procedure: FIGS. 5A-C. […] (FIG. 5A) Four to six week-old female Balb-c nu/nu mice were implanted with 17-β-estradiol plugs. After 24 h, ZR-75-1 breast cancer cells (imbedded in matrigel) were injected subcutaneously in the flank. When tumors were ˜150 mm3, the mice were paired matched into groups and injected intraperitoneally with PBS (vehicle control; closed squares), 50 mg/kg MUC1/AQA peptide (control peptide; open squares) or 10 mg/kg MUC1/CQC peptide (closed triangles) daily for 21 d. Another group was treated with 50 mg/kg MUC1/CQC peptide daily (⇑) for 6 d (open triangles). Mice were weighed twice weekly and tumor measurements were performed every 4 d. (FIGS. 5B and 5C). On day 24 (asterisk), tumors harvested from the control group and the group treated with 50 mg/kg/d×6d were stained with H&E (FIG. 5B) and with an antibody against MUC1 (FIG. 5C).
(FIG. 6A) Mice were injected with ZR-75-1 cells as described in the legend to FIG. 5A. When tumors were ˜275 mm^3, the mice were paired matched into groups and injected intraperitoneally with PBS (vehicle control; open squares) or 30 mg/kg MUC1/CQC peptide (closed squares) daily for 21 days (solid horizontal bar). […] The treated mice were monitored until day 52 when tumors were harvested for H&E staining (FIG. 6B).
Balb-c nu/nu female mice (Charles River Laboratories, Wilmington, Mass.), 4-6 weeks old weighing 18-22 grams, were implanted subcutaneously with 17-β-estradiol plugs (0.72 mg; Innovative Research, Sarasota, Fla.) using a trocar gun. After 24 h, 1×10^7 ZR-75-1 cells imbedded in Matri-Gel (BD Biosciences) were injected subcutaneously in the flank. When tumors were detectable at ˜150 mm^3 (Cohort 1) or 275 mm^3 (Cohort 2), the mice were pair matched into treatment and control groups. Each group contained 5 mice, each of which was ear tagged and followed throughout the study. Initial dosing was administered at the time of pair matching (day 1). Phosphate-buffered saline (vehicle), MUC1/CQC peptide and MUC1/AQA peptide were administered daily by intraperitoneal injection. Mice were weighed twice weekly, and tumor measurements were performed using calipers every 4 d. Tumor volume (V) was calculated using the formula V=W2×L/2, where W and L are the smaller and larger diameters, respectively. At sacrifice, the mice were perfused with saline and then phosphate-buffered formalin by cardiac administration. Tumors were excised, immersion fixed for 4 h, dehydrated through a graded series of ethanols, and processed for routine paraffin embedding. Tumors were evaluated by H&E staining and for immunoperoxidase staining with anti-MUC1 as described (Kufe, 1984).
To determine if administration of the MUC1/CQC peptide is associated with effects on body weight, five female nude (nu/nu) mice were injected intraperitoneally (IP) once each day at a dose of 50 mg/kg. […] To assess anti-tumor activity, ZR-75-1 cells (1×10^7) were implanted subcutaneously into the flanks of nude mice. After 12 d, mice bearing tumors of approximately 150 mm^3 were treated with the MUC1/CQC peptide at doses of 10 and 50 mg/kg/d. As controls, mice were treated with vehicle alone or with the MUC1/AQA peptide. […] To assess in part the basis for the activity, tumors harvested from control and treated mice were examined by histopathology. […] Sections of the tumors were also stained with an antibody against MUC1.
Studies were also performed on larger tumors (˜275 mm^3) (FIG. 6A).

[2] = 30 mg/kg/d×21 d, tumors harvested on day 52

Row | Compound | induction of necrosis (ZR-75-1 cells) | anti-tumor activity ([1]; 50 mg/kg/d for 21 d) | sub-G1 DNA content (apoptosis) (ZR-75-1 cells) | cell cycle distribution (ZR-75-1 cells; 72 h) | S phase population (ZR-75-1 cells; 96 h) | tumor growth ([1]; 10 mg/kg/d×21 d IP, tumors ~150 mm3, compared with MUC1/AQA 50 mg/kg/d) | MUC1 expression in tumors [1, 2] | tumor histopathology (H&E) [1, 2] | tumor growth ([1]; 30 mg/kg/d×21 d IP, larger tumors ~275 mm3) | tumor growth during treatment ([1]; 50 mg/kg/d IP, initial 7 d, tumors ~150 mm3) | tumor growth ([1]; 10 and 30 mg/kg/d for 21 d) | tumor histopathology (H&E) ([1]; 10 and 50 mg/kg, compared with vehicle or MUC1/AQA) | MUC1 expression in tumors (anti-MUC1 staining) ([1]; tumors ~150 mm3 cohort, compared with control and MUC1/AQA)
1 | MUC1/AQA: control peptide in which the CQC motif was altered to AQA, with poly-dArg transduction domain; SEQ ID NO: 60 ([dR][dR][dR][dR][dR][dR][dR][dR][dR]AQARRKNYGQLDIFP) [reference compound] | not | no anti-tumor activity |  |  |  |  |  |  |  |  |  |  | 
2 | CC[C@H](C)[C@H](NC(=O)[C@H](CC(=O)O)NC(=O)[C@H](CC(C)C)NC(=O)[C@H](CCC(N)=O)NC(=O)CNC(=O)[C@H](Cc1ccc(O)cc1)NC(=O)[C@H](CC(N)=O)NC(=O)[C@H](CCCCN)NC(=O)[C@H](CCCNC(=N)N)NC(=O)[C@H](CCCNC(=N)N)NC(=O)[C@H](CS)NC(=O)[C@H](CCC(N)=O)NC(=O)[C@H](CS)NC(=O)[C@@H](CCCNC(=N)N)NC(=O)[C@@H](CCCNC(=N)N)NC(=O)[C@@H](CCCNC(=N)N)NC(=O)[C@@H](CCCNC(=N)N)NC(=O)[C@@H](CCCNC(=N)N)NC(=O)[C@@H](CCCNC(=N)N)NC(=O)[C@@H](CCCNC(=N)N)NC(=O)[C@@H](CCCNC(=N)N)NC(=O)[C@H](N)CCCNC(=N)N)C(=O)N[C@@H](Cc1ccccc1)C(=O)N1CCC[C@H]1C(=O)O [MUC1/CQC] (H-[dR][dR][dR][dR][dR][dR][dR][dR][dR]CQCRRKNYGQLDIFP-OH; N-terminus and C-terminus assumed) | induction of necrosis |  | little if any accumulation of cells with sub-G1 DNA content | substantial arrest in S phase | S phase population was decreased | slowed growth | down-regulation of MUC1 expression | extensive areas of necrosis | arrest of tumor growth | blocked growth | effective in abrogating tumor growth | markedly necrotic | marked down-regulation of MUC1 expression
